# Experiments:
# [1] = system: dedifferentiated liposarcoma; experiment: Clinical trial in dedifferentiated liposarcoma: efficacy (RECIST 1.1); type: in vivo, human; conditions: 180 mg oral once daily
# From the text: (§1) In this study, a randomized, double-blind, placebo-controlled parallel trial design or a single arm trial design was employed. For the parallel control trial, after all patients signed the informed consent, subjects eligible for enrollment by screening were randomized (1:1) into two groups, i.e., a test group given the capsule of the compound of formula I and a control group given the placebo of the capsule of the compound of formula I, with 4 weeks (28 days) being 1 cycle; for the single arm trial, the administration regimen was the same as that for the test group of the parallel control trial. The efficacy and safety of the capsule of the compound of formula I in the treatment of dedifferentiated liposarcoma was evaluated by the clinical trials of the present disclosure.
# (§2) Hemoglobin (HGB) ≥90.0 g/L; • b. Absolute neutrophil count (ANC) ≥1.5×10^9/L; • c. Platelet count (PLT) ≥90×10^9/L; • 2) Biochemical examination criteria: • a. Total bilirubin (TBIL) ≤1.5×upper limit of normal ULN; for patients with Gilbert syndrome, ≤3×ULN; • b. Alanine aminotransferase (ALT) and aspartate aminotransferase (AST) ≤3×ULN. If liver metastasis is accompanied, ALT and AST ≤5×ULN; • c.
# (§3) Capsules of the compound of formula (I): strength: 50 mg or 60 mg, provided by Chia Tai Tianqing Pharmaceutical Group Co., Ltd.
# (§4) Capsules of the compound of formula (I): 180 mg/each administration (based on the compound of formula (I)), oral administration at fasting, once daily, and 28 consecutive days of administration as one treatment cycle. Placebo of the capsule of the compound of formula (I): 0 mg/each administration (based on the compound of formula (I)), oral administration at fasting, once daily, and 28 consecutive days of administration as one treatment cycle.
# Efficacy evaluation criteria: disease state was determined using the RECIST 1.1 criteria.
# [2] = system: dedifferentiated liposarcoma; experiment: Clinical trial in dedifferentiated liposarcoma: safety (NCI-CTC AE 5.0); type: in vivo, human; conditions: patients, 28-day cycle
# From the text: as §1, §2, §3, §4
# Safety evaluation criteria: the severity of adverse events was determined using the NCI-CTC AE 5.0 criteria. Adverse event record forms including time of occurrence, severity, relevance to the studied treatment, duration, measures taken, and the final state of the subject should be faithfully filled out during the trial.
# [3] = capsules 180 mg oral once daily
compound,measurement,setting,value
CC(C)c1c2cc(-c3nc(Nc4ccc(N5CCNCC5)cn4)ncc3F)ccc2nn1C [compound of formula (I)],"PFS, OS, ORR, DCR and DOR of the patients that could be evaluated",[1]; 28-day cycle,all good
same,12-week PFS rate,[1]; 15 subjects who had achieved the evaluation of C3 (12 weeks) efficacy,60%
same,patients who achieved 12-week PFS,[1]; of the 15 subjects evaluated at C3 (12 weeks),9 patients
same,"Gastrointestinal reactions (diarrhea, vomiting, and the like), grade","[2]; capsules 180 mg oral at fasting once daily, mainly this grade, controlled after symptomatic treatment",1-2 grade
same,total incidence rate of TEAEs of grade 3 or above,[2]; [3],9%
same,total safety,[2]; [3],good
